In paper doi:10.1101/2023.11.24.568596v1 (biorxiv, 2023):

Legend:
Conditions in all cases: binder
ULK3 = target: T1, ULK3 (Homo sapiens, UniProt Q6PHR2)
T1 sequence (Q6PHR2 1-472): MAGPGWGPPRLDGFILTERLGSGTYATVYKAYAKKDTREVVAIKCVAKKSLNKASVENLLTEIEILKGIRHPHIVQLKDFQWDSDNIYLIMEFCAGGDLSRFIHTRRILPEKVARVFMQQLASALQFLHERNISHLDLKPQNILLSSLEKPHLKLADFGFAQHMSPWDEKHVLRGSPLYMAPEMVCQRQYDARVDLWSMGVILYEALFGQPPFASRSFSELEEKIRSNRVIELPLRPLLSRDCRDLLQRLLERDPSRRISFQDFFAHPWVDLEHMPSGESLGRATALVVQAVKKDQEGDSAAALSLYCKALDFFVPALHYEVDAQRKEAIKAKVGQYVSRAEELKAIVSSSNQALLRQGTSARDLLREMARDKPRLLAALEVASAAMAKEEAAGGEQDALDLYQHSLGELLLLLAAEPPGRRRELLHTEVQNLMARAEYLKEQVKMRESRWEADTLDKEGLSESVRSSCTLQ

SRC = SRC (Homo sapiens, UniProt P12931)
Sequence of SRC (P12931 whole entry): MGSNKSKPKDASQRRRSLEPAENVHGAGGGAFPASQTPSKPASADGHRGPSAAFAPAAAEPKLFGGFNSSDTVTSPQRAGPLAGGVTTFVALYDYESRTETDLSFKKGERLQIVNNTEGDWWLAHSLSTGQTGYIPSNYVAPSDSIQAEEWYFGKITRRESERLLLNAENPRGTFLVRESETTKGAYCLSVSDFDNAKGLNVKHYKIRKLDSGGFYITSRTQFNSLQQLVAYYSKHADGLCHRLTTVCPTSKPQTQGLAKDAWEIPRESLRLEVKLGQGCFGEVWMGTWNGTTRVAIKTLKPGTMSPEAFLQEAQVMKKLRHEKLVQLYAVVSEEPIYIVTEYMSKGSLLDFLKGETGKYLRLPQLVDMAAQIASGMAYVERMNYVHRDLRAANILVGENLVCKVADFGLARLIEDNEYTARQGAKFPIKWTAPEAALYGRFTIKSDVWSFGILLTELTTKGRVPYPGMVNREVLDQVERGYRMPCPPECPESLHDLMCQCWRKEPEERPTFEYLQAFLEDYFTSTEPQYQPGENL

TTK = target: T2, TTK (Homo sapiens, UniProt P33981)
T2 sequence (P33981 1-857): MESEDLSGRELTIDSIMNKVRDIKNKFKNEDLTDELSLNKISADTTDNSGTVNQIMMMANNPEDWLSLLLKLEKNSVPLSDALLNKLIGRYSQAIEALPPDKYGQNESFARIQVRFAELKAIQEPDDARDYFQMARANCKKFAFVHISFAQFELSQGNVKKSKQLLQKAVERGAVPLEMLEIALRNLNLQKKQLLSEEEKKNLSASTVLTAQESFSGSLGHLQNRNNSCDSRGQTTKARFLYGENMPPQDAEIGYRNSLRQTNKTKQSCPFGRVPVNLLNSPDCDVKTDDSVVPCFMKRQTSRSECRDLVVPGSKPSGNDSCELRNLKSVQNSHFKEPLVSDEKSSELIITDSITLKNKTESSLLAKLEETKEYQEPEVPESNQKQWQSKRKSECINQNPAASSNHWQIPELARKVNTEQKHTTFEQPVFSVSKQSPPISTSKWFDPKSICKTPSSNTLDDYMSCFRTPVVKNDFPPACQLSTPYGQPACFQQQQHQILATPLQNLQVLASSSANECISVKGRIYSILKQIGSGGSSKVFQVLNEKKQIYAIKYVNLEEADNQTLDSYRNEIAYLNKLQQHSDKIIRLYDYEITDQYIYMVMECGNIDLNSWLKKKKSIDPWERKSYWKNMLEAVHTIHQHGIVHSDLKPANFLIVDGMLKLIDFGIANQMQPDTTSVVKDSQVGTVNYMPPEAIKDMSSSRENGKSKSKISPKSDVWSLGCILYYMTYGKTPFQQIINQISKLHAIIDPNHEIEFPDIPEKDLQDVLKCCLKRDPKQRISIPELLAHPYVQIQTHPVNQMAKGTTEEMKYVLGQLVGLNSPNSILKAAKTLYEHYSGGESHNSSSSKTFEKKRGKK

SRPK1 = SRPK1 (Homo sapiens, UniProt Q96SB4)
Sequence of SRPK1 (Q96SB4 whole entry): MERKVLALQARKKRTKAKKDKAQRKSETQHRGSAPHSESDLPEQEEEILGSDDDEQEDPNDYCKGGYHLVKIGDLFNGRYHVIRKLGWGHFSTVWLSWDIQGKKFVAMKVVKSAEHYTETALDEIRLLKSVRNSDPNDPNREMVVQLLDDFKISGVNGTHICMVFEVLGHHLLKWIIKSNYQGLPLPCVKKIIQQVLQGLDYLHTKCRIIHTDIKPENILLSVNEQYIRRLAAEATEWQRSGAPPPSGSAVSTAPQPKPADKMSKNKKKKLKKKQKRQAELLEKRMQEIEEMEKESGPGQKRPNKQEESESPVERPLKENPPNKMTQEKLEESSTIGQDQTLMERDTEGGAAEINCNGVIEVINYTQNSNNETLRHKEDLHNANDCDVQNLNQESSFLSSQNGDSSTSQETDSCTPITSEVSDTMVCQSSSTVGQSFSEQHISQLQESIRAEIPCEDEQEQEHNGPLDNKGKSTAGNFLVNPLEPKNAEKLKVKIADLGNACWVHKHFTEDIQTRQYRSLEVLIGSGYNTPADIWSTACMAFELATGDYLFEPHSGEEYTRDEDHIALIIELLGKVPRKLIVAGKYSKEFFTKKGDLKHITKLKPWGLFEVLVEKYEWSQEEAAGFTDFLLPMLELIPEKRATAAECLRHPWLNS

TAF1 = TAF1 (Homo sapiens, UniProt P21675)
Sequence of TAF1 (P21675 whole entry): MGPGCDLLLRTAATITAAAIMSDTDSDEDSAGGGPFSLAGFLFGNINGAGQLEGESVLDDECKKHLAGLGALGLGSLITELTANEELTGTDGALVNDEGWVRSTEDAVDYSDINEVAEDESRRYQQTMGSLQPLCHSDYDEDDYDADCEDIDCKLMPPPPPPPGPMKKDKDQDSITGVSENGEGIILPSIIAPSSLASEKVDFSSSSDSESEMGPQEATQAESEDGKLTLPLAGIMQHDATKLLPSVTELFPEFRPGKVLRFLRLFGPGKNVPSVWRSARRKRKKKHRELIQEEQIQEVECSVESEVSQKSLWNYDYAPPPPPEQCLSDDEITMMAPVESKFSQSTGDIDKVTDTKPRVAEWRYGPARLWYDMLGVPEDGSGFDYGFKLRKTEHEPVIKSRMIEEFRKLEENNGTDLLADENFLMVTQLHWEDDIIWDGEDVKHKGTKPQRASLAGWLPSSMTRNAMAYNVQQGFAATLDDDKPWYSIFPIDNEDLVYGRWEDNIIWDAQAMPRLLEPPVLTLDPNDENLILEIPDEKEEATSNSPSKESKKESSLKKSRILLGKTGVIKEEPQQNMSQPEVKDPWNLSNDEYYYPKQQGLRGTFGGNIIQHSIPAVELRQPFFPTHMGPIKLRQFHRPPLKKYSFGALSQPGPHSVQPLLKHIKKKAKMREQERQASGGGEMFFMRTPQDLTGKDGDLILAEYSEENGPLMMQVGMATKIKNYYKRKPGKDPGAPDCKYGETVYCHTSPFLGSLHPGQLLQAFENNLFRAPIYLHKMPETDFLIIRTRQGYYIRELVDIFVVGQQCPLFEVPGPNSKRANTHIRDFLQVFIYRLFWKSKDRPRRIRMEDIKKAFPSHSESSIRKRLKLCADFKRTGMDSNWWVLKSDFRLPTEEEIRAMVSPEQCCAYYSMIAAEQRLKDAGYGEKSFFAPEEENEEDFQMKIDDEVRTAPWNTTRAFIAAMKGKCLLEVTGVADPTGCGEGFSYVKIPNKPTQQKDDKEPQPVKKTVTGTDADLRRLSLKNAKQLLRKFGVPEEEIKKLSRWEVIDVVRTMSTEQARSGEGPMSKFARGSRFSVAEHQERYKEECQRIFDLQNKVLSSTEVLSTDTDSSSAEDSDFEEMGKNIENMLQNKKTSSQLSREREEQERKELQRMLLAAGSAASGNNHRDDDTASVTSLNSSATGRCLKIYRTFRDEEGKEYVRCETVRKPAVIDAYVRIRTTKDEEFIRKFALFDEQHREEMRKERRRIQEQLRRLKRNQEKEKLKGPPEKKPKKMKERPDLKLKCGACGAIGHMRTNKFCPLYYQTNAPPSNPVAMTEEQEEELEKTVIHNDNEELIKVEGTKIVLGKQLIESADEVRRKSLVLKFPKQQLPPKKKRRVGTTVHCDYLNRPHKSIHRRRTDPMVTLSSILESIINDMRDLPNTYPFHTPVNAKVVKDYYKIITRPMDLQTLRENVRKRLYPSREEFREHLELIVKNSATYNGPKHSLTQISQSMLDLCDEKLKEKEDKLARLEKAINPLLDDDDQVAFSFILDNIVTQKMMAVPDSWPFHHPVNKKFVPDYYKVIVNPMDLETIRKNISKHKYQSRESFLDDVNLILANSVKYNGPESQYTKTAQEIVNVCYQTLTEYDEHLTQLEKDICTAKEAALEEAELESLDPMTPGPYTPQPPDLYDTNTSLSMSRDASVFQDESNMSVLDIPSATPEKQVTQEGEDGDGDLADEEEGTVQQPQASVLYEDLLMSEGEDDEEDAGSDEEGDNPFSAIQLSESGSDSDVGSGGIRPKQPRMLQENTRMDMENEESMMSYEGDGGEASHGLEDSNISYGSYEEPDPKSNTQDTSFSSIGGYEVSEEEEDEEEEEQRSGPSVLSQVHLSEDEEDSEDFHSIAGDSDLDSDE

MST1 = target: T3, MST1 (Homo sapiens, UniProt Q13043)
T3 sequence (Q13043 1-487): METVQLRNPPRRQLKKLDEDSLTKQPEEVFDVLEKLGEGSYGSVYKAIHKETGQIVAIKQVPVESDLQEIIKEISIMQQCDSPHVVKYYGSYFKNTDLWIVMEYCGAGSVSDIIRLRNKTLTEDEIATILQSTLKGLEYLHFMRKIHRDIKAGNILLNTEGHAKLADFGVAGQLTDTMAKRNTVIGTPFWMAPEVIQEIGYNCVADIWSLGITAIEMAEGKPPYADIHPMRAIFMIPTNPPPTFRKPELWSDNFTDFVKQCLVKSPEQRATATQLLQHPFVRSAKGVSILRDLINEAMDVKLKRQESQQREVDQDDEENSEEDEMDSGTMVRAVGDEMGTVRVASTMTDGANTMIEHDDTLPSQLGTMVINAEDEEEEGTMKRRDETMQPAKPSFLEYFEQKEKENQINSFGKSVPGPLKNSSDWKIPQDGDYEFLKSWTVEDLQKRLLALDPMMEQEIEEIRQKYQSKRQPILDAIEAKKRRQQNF

PAK1 = PAK1 (Homo sapiens, UniProt Q13153)
Sequence of PAK1 (Q13153 whole entry): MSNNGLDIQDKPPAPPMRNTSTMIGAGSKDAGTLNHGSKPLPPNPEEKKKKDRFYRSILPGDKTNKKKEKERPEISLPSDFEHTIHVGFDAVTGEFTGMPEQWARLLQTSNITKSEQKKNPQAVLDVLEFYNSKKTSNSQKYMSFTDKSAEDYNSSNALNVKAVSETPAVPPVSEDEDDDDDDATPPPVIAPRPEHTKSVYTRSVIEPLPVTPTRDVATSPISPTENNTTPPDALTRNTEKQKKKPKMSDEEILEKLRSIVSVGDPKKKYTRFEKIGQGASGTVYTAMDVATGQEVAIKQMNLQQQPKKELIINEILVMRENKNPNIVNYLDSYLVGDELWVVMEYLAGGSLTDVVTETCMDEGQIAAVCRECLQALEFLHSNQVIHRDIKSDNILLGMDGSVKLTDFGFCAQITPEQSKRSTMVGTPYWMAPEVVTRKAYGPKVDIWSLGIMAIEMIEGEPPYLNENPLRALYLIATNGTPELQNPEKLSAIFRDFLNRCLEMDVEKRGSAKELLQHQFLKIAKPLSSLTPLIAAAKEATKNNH

MST4 = MST4 (Homo sapiens, UniProt Q9P289)
Sequence of MST4 (Q9P289 whole entry): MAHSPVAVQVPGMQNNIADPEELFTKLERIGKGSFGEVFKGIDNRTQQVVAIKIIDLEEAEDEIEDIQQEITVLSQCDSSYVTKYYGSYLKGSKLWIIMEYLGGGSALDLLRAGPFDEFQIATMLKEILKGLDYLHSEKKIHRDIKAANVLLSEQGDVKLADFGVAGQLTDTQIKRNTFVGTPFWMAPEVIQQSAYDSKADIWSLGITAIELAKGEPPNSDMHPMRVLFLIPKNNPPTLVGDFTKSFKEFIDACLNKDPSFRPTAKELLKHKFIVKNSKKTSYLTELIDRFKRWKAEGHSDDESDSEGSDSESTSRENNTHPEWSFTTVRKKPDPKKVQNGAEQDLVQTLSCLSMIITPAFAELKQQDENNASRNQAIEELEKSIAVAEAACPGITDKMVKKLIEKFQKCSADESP

SMILES: CNc1ncc2cc(-c3ccc(-c4cccc(C)n4)cc3Cl)c(=O)n(CCCCN)c2n1 [compound 20, MRLW5]
- ΔTm MRLW5 (20) (ULK3): 8.6 °C
- ΔTm MRLW5 (20) (SRC): 0.9 °C
- ΔTm MRLW5 (20) (TTK): 2.7 °C
- ΔTm MRLW5 (20) (SRPK1): -0.2 °C
- ΔTm MRLW5 (20) (TAF1): 0.0 °C

SMILES: CNc1ncc2cc(-c3ccc(-c4cccc(C)n4)cc3Cl)c(=O)n(CCC3CCNCC3)c2n1 [compound 22, 6-(2-Chloro-4-(6-methylpyridin-2-yl)phenyl)-2-(methylamino)-8-(2-(piperidin-4-yl)ethyl)pyrido[2,3-d]pyrimidin-7(8H)-one]
- ΔTm 22 (ULK3): 9.7 °C
- ΔTm 22 (SRC): 0.6 °C
- ΔTm 22 (TTK): 3.7 °C
- ΔTm 22 (SRPK1): -0.2 °C
- ΔTm 22 (TAF1): 0.3 °C

SMILES: CNc1ncc2cc(-c3ccc(-c4cccc(C)n4)cc3Cl)c(=O)n(C[C@H]3CC[C@H](N)CC3)c2n1 [compound 23, 23]
- ΔTm 23 (ULK3): 13.5 °C
- ΔTm 23 (SRC): 1.2 °C
- ΔTm 23 (TTK): 3.5 °C
- ΔTm 23 (SRPK1): -0.5 °C
- ΔTm 23 (TAF1): -0.5 °C

SMILES: Cc1cccc(-c2ccc(-c3cc4cnc(NC(CO)CO)nc4n(CCCCN)c3=O)c(Cl)c2)n1 [compound 24, 8-(4-Aminobutyl)-6-(2-chloro-4-(6-methylpyridin-2-yl)phenyl)-2-((1,3-dihydroxypropan-2-yl)amino)pyrido[2,3-d]pyrimidin-7(8H)-one]
- dTm MST1 (MST1): 2.1 °C
- dTm PAK1 (PAK1): 5.1 °C
- ΔTm MR24 (24) (ULK3): 7.2 °C
- ΔTm MR24 (24) (SRC): 0.0 °C
- ΔTm MR24 (24) (TTK): -3.0 °C
- ΔTm MR24 (24) (SRPK1): -0.1 °C
- ΔTm MR24 (24) (TAF1): -0.1 °C
- dTm MST4 (MST4): 8.1 °C

SMILES: Cc1cccc(-c2ccc(-c3cc4cnc(NCCCc5ccc(N)cc5)nc4n(CCCCN)c3=O)c(Cl)c2)n1 [compound 25, 8-(4-Aminobutyl)-2-((3-(4-aminophenyl)propyl)amino)-6-(2-chloro-4-(6-methylpyridin-2-yl)phenyl)pyrido[2,3-d]pyrimidin-7(8H)-one]
- dTm MST1 (MST1): 4.9 °C
- dTm PAK1 (PAK1): 6.8 °C
- ΔTm 25 (ULK3): 11.1 °C
- ΔTm 25 (SRC): 1.0 °C
- ΔTm 25 (TTK): 1.8 °C
- ΔTm 25 (SRPK1): 0.1 °C
- ΔTm 25 (TAF1): -0.1 °C
- dTm MST4 (MST4): 9.7 °C

SMILES: Cc1cccc(-c2ccc(-c3cc4cnc(NCCCN5CCOCC5)nc4n(CCCCN)c3=O)c(Cl)c2)n1 [compound 26, MR26]
- dTm MST1 (MST1): 3.6 °C
- dTm PAK1 (PAK1): 4.1 °C
- ΔTm MR26 (26) (ULK3): 6.7 °C
- ΔTm MR26 (26) (SRC): 1.4 °C
- ΔTm MR26 (26) (TTK): -0.2 °C
- ΔTm MR26 (26) (SRPK1): 0.1 °C
- ΔTm MR26 (26) (TAF1): 0.0 °C
- dTm MST4 (MST4): 10.6 °C

SMILES: Cc1cccc(-c2ccc(-c3cc4cnc(NCCCN5CCCC5=O)nc4n(CCCCN)c3=O)c(Cl)c2)n1 [compound 27, MR30]
- dTm MST1 (MST1): 1.1 °C
- dTm PAK1 (PAK1): 3.6 °C
- ΔTm MR30 (27) (ULK3): 7.3 °C
- ΔTm MR30 (27) (SRC): -0.5 °C
- ΔTm MR30 (27) (TTK): -0.3 °C
- ΔTm MR30 (27) (SRPK1): -0.2 °C
- ΔTm MR30 (27) (TAF1): 0.0 °C
- dTm MST4 (MST4): 7.5 °C

SMILES: Cc1cccc(-c2ccc(-c3cc4cnc(Nc5cc(C(F)(F)F)ccc5C)nc4n(CCCCN)c3=O)c(Cl)c2)n1 [compound 28, 8-(4-Aminobutyl)-6-(2-chloro-4-(6-methylpyridin-2-yl)phenyl)-2-((2-methyl-5-(trifluoromethyl)phenyl)amino)pyrido[2,3-d]pyrimidin-7(8H)-one]
- dTm MST1 (MST1): 5.8 °C
- dTm PAK1 (PAK1): 5.9 °C
- ΔTm 28 (ULK3): 6.5 °C
- ΔTm 28 (SRC): 3.4 °C
- ΔTm 28 (TTK): -11.0 °C
- ΔTm 28 (SRPK1): 0.1 °C
- ΔTm 28 (TAF1): 0.4 °C
- dTm MST4 (MST4): 9.5 °C

SMILES: Cc1cccc(-c2ccc(-c3cc4cnc(NCCCN5CCNCC5)nc4n(CCCCN)c3=O)c(Cl)c2)n1 [compound 29, 8-(4-Aminobutyl)-6-(2-chloro-4-(6-methylpyridin-2-yl)phenyl)-2-((3-(piperazin-1-yl)propyl)amino)pyrido[2,3-d]pyrimidin-7(8H)-one]
- dTm MST1 (MST1): 3.1 °C
- dTm PAK1 (PAK1): 5.0 °C
- ΔTm 29 (ULK3): 5.8 °C
- ΔTm 29 (SRC): 1.9 °C
- ΔTm 29 (TTK): -0.4 °C
- ΔTm 29 (SRPK1): 0.1 °C
- ΔTm 29 (TAF1): 0.2 °C
- dTm MST4 (MST4): 8.9 °C

SMILES: Cc1cccc(-c2ccc(-c3cc4cnc(Nc5ccc(CCCO)cc5)nc4n(CCCCN)c3=O)c(Cl)c2)n1 [compound 30, 8-(4-Aminobutyl)-6-(2-chloro-4-(6-methylpyridin-2-yl)phenyl)-2-((4-(3-hydroxypropyl)phenyl)amino)pyrido[2,3-d]pyrimidin-7(8H)-one]
- dTm MST1 (MST1): 8.7 °C
- dTm PAK1 (PAK1): 9.1 °C
- ΔTm 30 (ULK3): 14.9 °C
- ΔTm 30 (SRC): 4.6 °C
- ΔTm 30 (TTK): 5.6 °C
- ΔTm 30 (SRPK1): 0.0 °C
- ΔTm 30 (TAF1): -0.5 °C
- dTm MST4 (MST4): 15.3 °C

SMILES: Cc1cccc(-c2ccc(-c3cc4cnc(Nc5ccc(O)cc5)nc4n(CCCCN)c3=O)c(Cl)c2)n1 [compound 31, 8-(4-Aminobutyl)-6-(2-chloro-4-(6-methylpyridin-2-yl)phenyl)-2-((4-hydroxyphenyl)amino) pyrido[2,3-d]pyrimidin-7(8H)-one]
- dTm MST1 (MST1): 8.0 °C
- dTm PAK1 (PAK1): 9.2 °C
- ΔTm 31 (ULK3): 14.5 °C
- ΔTm 31 (SRC): 5.0 °C
- ΔTm 31 (TTK): 5.1 °C
- ΔTm 31 (SRPK1): 0.3 °C
- ΔTm 31 (TAF1): -1.0 °C
- dTm MST4 (MST4): 15.0 °C
